The IC50 is the concentration at which inhibition is half-maximal. Broadly, the GI50 is the concentration that inhibits growth by half.

Here are results for 13 compounds from ChEMBL document CHEMBL5230089, “Small-Molecule Fms-like Tyrosine Kinase 3 Inhibitors: An Attractive and Efficient Method for the Treatment of Acute Myeloid Leukemia” (J Med Chem, 2020).

For test [1], the target named is T1, Receptor-type tyrosine-protein kinase FLT3 (Homo sapiens, UniProt P36888).
T1 sequence (P36888 whole entry): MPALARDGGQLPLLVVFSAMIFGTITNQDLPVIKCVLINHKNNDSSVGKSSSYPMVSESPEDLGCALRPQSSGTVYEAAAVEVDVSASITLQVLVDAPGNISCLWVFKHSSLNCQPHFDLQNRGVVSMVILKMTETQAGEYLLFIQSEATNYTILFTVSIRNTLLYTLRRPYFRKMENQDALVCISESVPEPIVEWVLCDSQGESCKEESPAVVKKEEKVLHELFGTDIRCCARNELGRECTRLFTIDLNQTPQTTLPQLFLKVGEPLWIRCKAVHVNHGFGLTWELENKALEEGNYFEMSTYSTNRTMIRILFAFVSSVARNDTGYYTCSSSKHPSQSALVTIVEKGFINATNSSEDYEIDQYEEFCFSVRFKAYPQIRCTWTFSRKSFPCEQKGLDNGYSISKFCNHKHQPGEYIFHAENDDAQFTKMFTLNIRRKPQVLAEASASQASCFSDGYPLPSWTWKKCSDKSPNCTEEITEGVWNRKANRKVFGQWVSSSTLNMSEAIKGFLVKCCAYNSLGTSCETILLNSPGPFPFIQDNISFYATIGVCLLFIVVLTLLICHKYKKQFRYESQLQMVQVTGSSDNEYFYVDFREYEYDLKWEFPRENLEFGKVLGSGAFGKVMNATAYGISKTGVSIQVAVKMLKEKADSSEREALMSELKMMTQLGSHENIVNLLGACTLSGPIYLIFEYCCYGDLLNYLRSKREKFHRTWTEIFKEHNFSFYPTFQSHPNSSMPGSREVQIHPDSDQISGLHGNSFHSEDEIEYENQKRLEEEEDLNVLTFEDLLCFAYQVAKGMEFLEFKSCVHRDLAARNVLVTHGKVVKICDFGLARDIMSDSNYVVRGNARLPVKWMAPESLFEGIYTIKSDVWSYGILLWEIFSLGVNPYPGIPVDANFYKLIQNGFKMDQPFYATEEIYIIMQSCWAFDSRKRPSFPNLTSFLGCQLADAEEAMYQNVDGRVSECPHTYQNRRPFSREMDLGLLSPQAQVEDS
Kind of test: Inhibition of FLT3 (unknown origin).

For the next test, the system named is RS4-11. Kind of test: Growth inhibition human RS4-11 cell assessed as reduction in cell viability at 50 uM measured after 72 hrs by CCK8 assay. The test is classed as functional. In general terms: Tetrazolium dyes change colour on reduction, which living cells bring about.
The subject of test [2] is MV4-11. Kind of test: Growth inhibition of human MV4-11 cells assessed as reduction in cell viability at 50 uM measured after 72 hrs by CCK8 assay. The test is classed as functional.
Test [3] deals with MV4-11. Kind of test: Growth inhibition of human MV4-11 cells incubated for 72 hrs by CCK-8 assay. The test is classed as functional.
The subject of another test is HL-60. Kind of test: Growth inhibition of human HL-60 cells incubated for 4 days by WST assay. The test is classed as functional. The conditions noted are these: HL-60, 96 h, time 4 day.
The test system of test [4] is MOLM-14. Kind of test: Cytotoxicity against human MOLM-14 cells assessed as reduction in cell viability incubated for 72 hrs. The test is classed as functional, cell-based. The settings on record: MOLM-14, 72 h.
A further test concerns 697. Nature of the test: Cytotoxicity activity against human 697 cells assessed as reduction cell viability at 50 uM incubated for 48 hrs by ATP-glo assay. The settings on record: Homo sapiens, 697, 48 h. The test is classed as functional, cell-based.
The subject of test [5] is BaF3. Nature of the test: Antiproliferative activity against mouse BaF3 FLT3-D835 cells assessed as reduction in cell viability measured after 72 hrs by MTS assay. The test is classed as functional, cell-based. The settings on record: BaF3, 72 h.
The test system of test [6] is MOLM-14. Nature of the test: cells. The settings on record: Homo sapiens, MOLM-14, 72 h.
Another test can be described thus: cells. The conditions noted are these: Homo sapiens, TF cell, 72 h.
In test [7] the test system is MOLM-13. Nature of the test: Cytotoxicity against human MOLM-13 cells assessed as cell viability incubated for 72 hrs by Cell titer-blue assay. The test is classed as functional, cell-based. The conditions noted are these: MOLM-13, 72 h. A general note: Alamar Blue is a resazurin reagent that responds to reducing activity.
Test [8] concerns BaF3. Nature of the test: cells. The settings on record: Mus musculus, BaF3, 72 h.
Test [9] relates to MV4-11. Kind of test: cells. The conditions noted are these: Homo sapiens, MV4-11, 48 h.
Description: Antiproliferative activity against human MV4-11 cells assessed as reduction in cell viability after 48 hrs by Alamar Blue assay
The subject of test [10] is MOLM-13. Kind of test: cells. The conditions noted are these: Homo sapiens, MOLM-13, 72 h.
For test [11], the system named is MOLM-13. Kind of test: cells. The settings on record: Homo sapiens, MOLM-13, 72 h. The source holds these as a separate data set.
Description: Cytotoxicity against human MOLM-13 cells assessed as reduction in cell viability incubated for 72 hrs
For test [12], the system named is MV4-11. Kind of test: cells. The conditions noted are these: Homo sapiens, MV4-11, 72 h.
Description: Cytotoxicity against human MV4-11 cells assessed as cell viability incubated for 72 hrs by Cell titer-blue assay
For test [13], the system named is MOLM-13. Nature of the test: Growth inhibition of human MOLM-13 cells incubated for 72 hrs by CCK-8 assay. The test is classed as functional.
Test [14] deals with MOLM-14. Kind of test: Growth inhibition of human MOLM-14 cells incubated for 72 hrs by CCK-8 assay. The test is classed as functional.
For test [15], the target named is T2, Receptor-type tyrosine-protein kinase FLT3 (Homo sapiens, UniProt P36888, ITD).
A further test deals with T3, Aurora kinase A (Homo sapiens, UniProt O14965).
T3 sequence (O14965 whole entry): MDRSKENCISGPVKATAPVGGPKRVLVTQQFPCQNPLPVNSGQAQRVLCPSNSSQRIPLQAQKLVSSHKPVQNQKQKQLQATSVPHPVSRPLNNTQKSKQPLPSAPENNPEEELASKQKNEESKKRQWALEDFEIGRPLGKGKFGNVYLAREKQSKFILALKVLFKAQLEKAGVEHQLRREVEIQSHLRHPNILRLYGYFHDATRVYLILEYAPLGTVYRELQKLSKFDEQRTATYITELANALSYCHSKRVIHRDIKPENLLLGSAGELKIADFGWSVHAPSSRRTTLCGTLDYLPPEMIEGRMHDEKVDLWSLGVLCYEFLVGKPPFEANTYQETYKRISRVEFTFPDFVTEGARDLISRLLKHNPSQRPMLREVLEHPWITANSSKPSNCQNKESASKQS
Kind of test: Inhibition of Aurora-A (unknown origin).

In test [16] the target is T1, Receptor-type tyrosine-protein kinase FLT3. Kind of test: Inhibition of FLT3 (unknown origin) by ADP-Glo kinase assay.
Test [17] has as its system MOLM-13. Nature of the test: Antiproliferative activity against human MOLM-13 cells assessed as reduction in cell viability measured after 48 hrs by MTT assay. The settings on record: MOLM-13, 48 h. The test is classed as functional, cell-based.
The target in test [18] is T2, Receptor-type tyrosine-protein kinase FLT3. Kind of test: Inhibition of FLT3-ITD mutant (unknown origin) expressed in mouse BaF3 cells assessed as inhibition. The test is classed as cell-based.
The test system of test [19] is MV4-11. Nature of the test: Antiproliferative activity against human MV4-11 cells assessed as cell growth inhibition measured after 72 hrs by cell titer-Blue assay. The settings on record: MV4-11, 72 h. The test is classed as functional, cell-based.
The subject of test [20] is MOLM-14. Nature of the test: Antiproliferative activity against human MOLM-14 cells assessed as cell growth inhibition measured after 72 hrs by cell titer-Blue assay. The settings on record: MOLM-14, 72 h. The test is classed as functional, cell-based.
The target of test [21] is T2, Receptor-type tyrosine-protein kinase FLT3. Kind of test: Inhibition of FLT3-ITD mutant phosphorylation in human MOLM-14 cell incubated for 2 hrs. The test is classed as cell-based.
Test [22] has as its target Receptor-type tyrosine-protein kinase FLT3 (Homo sapiens, UniProt P36888, D835Y). Kind of test: Inhibition of FLT3-D835Y mutant phosphorylation in human MOLM-14 cell incubated for 2 hrs. The test is classed as cell-based.

Structures are written as SMILES.

For `O=C(c1ccncc1)N1CCc2nc(-c3cc4cc(F)ccc4[nH]c3=O)[nH]c2C1`, half-maximal inhibition in test [1] (IC50) required 2.7 nM. Moreover, the results for the concentration for 50% growth inhibition (GI50) in the test on RS4-11 and with MV4-11 [2] were 6300 nM and 110 nM, respectively.
In the case of `CNCCOc1ccc(-c2sc3nc(-c4cccs4)nc(NN4C(=O)C=C(C)C4=O)c3c2C)cc1`, the GI50 in the test on MV4-11 [3] turned out to be 540 nM; in the test with HL-60, 250 nM.
As to `CCCCNc1ncc2c(-c3ccc(CN4CCN(C)CC4)cc3)cn([C@H]3CC[C@H](O)CC3)c2n1`, the IC50 with MOLM-14 [4] turned out to be 14 nM; in the test with 697, 2.7 nM.
Consider `CCc1nc(C(N)=O)c(Nc2ccc(N3CCC(N4CCN(C)CC4)CC3)c(OC)c2)nc1NC1CCOCC1` [GILTERITINIB], for which the half-maximal inhibitory concentration (IC50) in the test with BaF3 [5] was found to be 0.7 nM; with MOLM-14 [6], 1.8 nM; in “cells”, 1.4 nM.
In the case of `CC1(COc2ccc3c(c2)ncn3-c2ccc3cccc(N4CCC(N)CC4)c3n2)COC1` [CRENOLANIB], the concentration for half-maximal inhibition (IC50) with MOLM-14 [4] was found to be 2 nM; with MOLM-13 [7], 2.9 nM; with BaF3 [8] it was 1.3 nM; in the test with MV4-11 [9], 1.3 nM; in the test with MOLM-13 [10] it was 2 nM; in the test on MOLM-14 [6] it was 2 nM. Moreover, the IC50 in the test on MOLM-13 [11] was determined as 4.9 nM; in the test on MV4-11 [12], 0.92 nM.
For `CN(C)CC(=O)N1CCC[C@@H](n2nc(-c3ccc(Oc4ccccc4)cc3)c3c(N)ncnc32)C1`, the GI50 was found to be 22 nM in the test on MV4-11 [3], 21 nM in the test with MOLM-13 [13] and 42 nM with MOLM-14 [14].
For the compound `O=C(c1ccc(CN2CCCCC2)cc1)N1CCc2nc(-c3cc4cc(F)ccc4[nH]c3=O)[nH]c2C1`, the IC50 in test [1] turned out to be 0.57 nM. The 50% growth inhibitory concentration (GI50) in the test with RS4-11 was 4860 nM; with MV4-11 [2], 260 nM.
Regarding `CC(C)(C)c1cc(NC(=O)Nc2ncc(CCNc3ncnc4[nH]c(-c5ccccc5)cc34)s2)no1`, the half-maximal inhibitory concentration (IC50) in [15] was 67 nM; at Aurora kinase A, 15 nM; with MV4-11 [9] it was 7 nM; in the test with MOLM-13 [11], 7 nM.
Regarding `Cc1[nH]c(/C=C2\C(=O)Nc3ccc(F)cc32)c(C)c1NC(=O)[C@@H]1CCCN1`, the half-inhibitory concentration (IC50) in [15] worked out at 5.3 nM; in the test with MV4-11 [9], 24.8 nM; with MOLM-13 [11], 23.6 nM.
With `COc1cc2c(Oc3ccc(NC(=O)Nc4cccc(C)c4)cc3F)ccnc2cc1OCCCN1CCOCC1`, the IC50 came to 9 nM in test [16], 0.24 nM with MOLM-13 [17] and 1.1 nM in test [18].
As for `Cc1ccc(C(=O)Nc2ccc(CN3CCN(C)CC3)c(C(F)(F)F)c2)cc1C#Cc1c(N)ncc2ccc(Cl)cc12`, the values for the IC50 (in test [15]; in the test on MV4-11 [9]; in the test on MOLM-14 [6]) were 6.5 nM, 0.49 nM and 0.72 nM, respectively.
In turn, `Cc1cc2ncc(-c3ccc(NC(=O)Nc4cc(C(C)(C)C)on4)cc3)nc2cc1C` had an IC50 in test [15] of 71 nM.
For `Cc1ncc(C(=O)Nc2ccc(CN3CCN(C)CC3)c(C(F)(F)F)c2)cc1C#Cc1c(N)ncc2ccc(F)cc12`, the IC50 is 0.5 nM in the test on MV4-11 [19], 0.5 nM with MOLM-14 [20], 0.5 nM in test [21] and 16.6 nM in [22].
